Experiment [1] has as its system U87 cells. As to the kind of experiment: MTT viability with inhibitors of phagosome formation plus G-TPP. The experiment is classed as cell-based, human. The following applies: inhibitor 1 hour then G-TPP, MTT after 16 hours. How it is done:
FIG. 11A is a graph of the percent viability of U87 cells following incubation with inhibitors of phagosome formation, bafilomycin A (BF) or 3-methyladenine (3-MA), for 1 hour and treatment with G-TPP. MTT analysis was performed after 16 hours with MTT. The mean data±standard deviation are shown.
(§1) For autophagy, glioblastoma cells were transfected with an LC3-GFP cDNA by FuGENE HD (Roche), treated with vehicle, nontargeted 17-AAG, or G-TPP, and analyzed by fluorescence microscopy. […] An average of 200 cells was counted in 4-6 independent fields per condition. In some experiments, G-TPP-treated cells were incubated with pharmacologic inhibitors of autophagy, BF, or 3-MA, and analyzed after 16 hours for modulation of cell viability by MTT.

Experiment [2] relates to LN229 cells. As to the kind of experiment: Electron microscopy of treated cells. The experiment is classed as cell-based, human. The following applies: 5-10 μM, 16 hours. How it is done:
Subconfluent monolayers of LN229 cells were incubated with PBS, pH 7.2, or G-TPP or nontargeted 17-AAG (5-10 μM) for 16 hours at 37° C. Cells were washed briefly in 0.1 M PBS, pH 7.4, fixed in buffered 2.5% glutaraldehyde (GA) with or without 4% formaldehyde (FA) or for 30 minutes at 22° C., post-fixed in 1% osmium tetroxide, and processed by standard methods for epoxy embedding. In some experiments, cells were fixed in buffered 3% FA with 0.1% GA for 25 minutes at 22° C., washed, quenched with NH4Cl, and dehydrated for embedding in LR White resin. Ultrathin sections on nickel grids were treated for heat-induced antigen retrieval and blocked with buffered 1% BSA, as described in published protocols (Yamashita et al., Methods Mol. Biol. 657:237-248, 2010). Samples were incubated with an antibody to COX IV, followed by a colloidal gold-conjugated (12 nm) secondary antibody of appropriate specificity (Jackson ImmunoResearch). Grids were briefly post-fixed with 2% GA, washed, air dried, and then exposed to osmium tetroxide vapors for 20 minutes. Ultrathin sections were stained with uranyl acetate and lead citrate before examination in a Philips CM10 transmission electron microscope.

The subject of experiment [3] is NF-κB promoter in U251 cells. In words: NF-κB luciferase promoter activity. The experiment is classed as cell-based, human. The settings on record: U251, luciferase normalized to β-galactosidase. How it is done: FIG. 12A is a graph showing the relative light units (RLU) of U251 cells from luciferase produced from a NF-κB promoter following no treatment or treatment with G-TPP or TRAIL. The luciferase data are normalized to β-galactosidase. TRAIL (800 ng/mL) was used as a control. The mean data±standard deviation are shown.
FIG. 12B is a graph showing the RLU of U251 cells from luciferase produced from a NF-κB promoter following no treatment or treatment with G-TPP in the presence or absence of TNF-α. The luciferase data are normalized to β-galactosidase. The mean data±standard deviation are shown.
(§2) FIG. 14B is a graph showing the RLU of U251 cells from luciferase produced from a NF-κB or cFLIP promoter following treatment with non-targeted 17-AAG. Cells were analyzed after 9 hours for luciferase activity. The mean data±SEM of replicates of a representative experiment are shown.
(§3) Tumor cell types were transfected with NF-κB (Mehrota et al., Cancer Cell 17:53-64, 2010), p53, or FLIP luciferase promoter construct (pGL3-FLIP1500; Addgene #16016) using FuGENE HD. After 24 hours at 37° C., cells were stimulated with G-TPP or 17-AAG (0-10 μM) for 6 hours, harvested, and analyzed for β-galactosidase-normalized luciferase activity in a luminometer, as described (Mehrota et al., Cancer Cell 17:53-64, 2010). In some experiments, β-galactosidase-normalized NF-κB promoter activity was examined after cell stimulation with TNF-α, as described (Mehrota et al., Cancer Cell 17:53-64, 2010).

The subject of experiment [4] is FLIP promoter in U251 cells. In words: FLIP luciferase promoter activity. In kind it is cell-based, human. How it is done: FIG. 13A is a graph showing the RLU of U251 cells from luciferase produced from a FLIP promoter following no treatment or treatment with two different concentrations of G-TPP. The luciferase data are normalized to β-galactosidase. The mean data±standard deviation are shown.
as §2, §3

Experiment [5] has as its system U251 cells. In words: Annexin V / propidium iodide flow cytometry. The experiment is classed as cell-based, human. The following applies: 5 μM TPP-GA, 25 ng/ml TRAIL, alone or combined. In general terms: Flow cytometry measures light scatter and fluorescence of single cells or particles in a stream.
Experiment [6] has as its system LN229 cells. In words: Western blotting of caspase, BID and PARP cleavage. In kind it is cell-based, human. The following applies: 5 μM TPP-GA, 200 ng/ml TRAIL, alone or combined, 16 hours. How it is done:
(§4) Western blotting was employed to elucidate the proteolytic mechanism in TRAIL and TRAIL+Gamitrinib-induced apoptosis. Since Gamitrinibs augment TRAIL-induced apoptosis, the activation/cleavage of caspases-3, -7, -8, -9, BH3 interacting domain death agonist (BID), and Poly-ADP-ribose polymerase (PARP) was examined. […] The time course of activation/cleavage of caspases-3, -7, -8, -9, BID, and PARP over 24 hours was also examined following treatment of LN229 (FIG. 3C) or U251 (FIG. 3D) cells with 5 μM TPP-GA and 200 or 20 ng/ml TRAIL, respectively.
Background: Immunoblotting shows a protein as a band on a membrane.

Experiment [7] relates to U251 cells. As to the kind of experiment: Western blotting of caspase, BID and PARP cleavage. The following applies: 5 μM TPP-GA, 20 ng/ml TRAIL, alone or combined, 16 hours. In kind it is cell-based, human. How it is done:
as §4

Experiment [8] has as its system U87-luc glioblastoma cells. In words: Orthotopic glioblastoma tumor model, bioluminescence imaging. The settings on record: CB17 SCID/beige mice; TRAIL 2 μg intracranially, TPP intraperitoneally. In kind it is in vivo. How it is done: Since Gamitrinib-TPP dramatically sensitizes cancer cells in vitro it was of highest interest to assess efficacy in vivo. To this end, efficacy of TRAIL, TPP, or the combination of both was determined in an orthotopic glioblastoma tumor model. Twenty nude mice were intracranially injected with U87-luc glioblastoma cells. U87 glioblastoma cells stably transfected with a luciferase expression plasmid (U87-Luc) were suspended in sterile PBS, pH 7.2, and stereotactically implanted (1×10^5) in the right cerebral striatum of immunocompromised CB17 SCID/beige female mice (Charles River Laboratories). Treatment group 1 received only vehicle solutions. Group 2 received TRAIL intracranially (2 μg) and carrier solution intraperitoneally. Group 3 received PBS intracranially and TPP intraperitoneally in a carrier solution consisting of 20% Cremophor in PBS. Group 4 received both TRAIL and TPP. Tumor growth was assessed after each intracranial injection by application of 58 mg/kg D-luciferin and subsequent bioluminescence imaging using a Xenogen In Vivo Imaging System. […]
Five days after injection of U87-luc glioblastoma cells, the mice were scanned, quantified and according to signal strength randomized into 4 treatment groups (Group 1: Vehicle, Group 2: TRAIL, Group 3: TPP, Group 4: TRAIL+TPP) (FIGS. 5A, 6A).

For experiment [9], the system named is U87 cells. As to the kind of experiment: LC3 immunoblot (autophagy). The following applies: over time. The experiment is classed as cell-based, human. How it is done: FIG. 10A is an immunoblot of lysates from U87 cells following treatment with G-TPP for the indicated periods of time. The position of the unmodified (I) and lipidated form (II) form of LC3 are indicated.
(§5) The various cell types were seeded in triplicate onto 96-well plates at 2×10^3 cells/well, treated with vehicle, G-TPP, or nontargeted 17-AAG (0-20 μM) for up to 24 hours, and quantified for metabolic activity by a 3(4,5-dimethyl-thyazoyl-2-yl)2,5 diphenyltetrazolium bromide (MTT) colorimetric assay with absorbance at 405 nm, as described in Plescia et al. (Cancer Cell 7:457-468, 2005). Changes in protein expression under the various combination regimens were determined by immunoblotting.

Experiment [10] deals with U251 cells. As to the kind of experiment: LC3-GFP fluorescence microscopy (autophagy). The experiment is classed as cell-based, human. The settings on record: 16 hours. How it is done:
FIG. 10B is a fluorescence photomicrograph and a graph of the percentage of fluorescent U251 cells following transfection of U251 cells with LC3-GFP and treatment for 16 hours with vehicle (left photomicrograph) or G-TPP (right photomicrograph).
as §1

Experiment [11] deals with FLIP in LN229 cells. As to the kind of experiment: FLIP protein immunoblot. In kind it is cell-based, human. How it is done:
FIG. 13B is two immunoblots lysate from LN229 cells following treatment with G-TPP. The top immunoblot is a dose response experiment. The bottom immunoblot is a time-course experiment. FLIP (L) is the FLIP long form. FLIP(S) is the FLIP short form.
as §5

The test system of experiment [12] is RelB, Bcl-3 mRNA in LN229 cells. As to the kind of experiment: RelB and Bcl-3 mRNA expression. The experiment is classed as cell-based, human. From the text:
FIG. 13C is a Northern blot showing the PCR-amplified expression of RelB, Bcl-3, and GAPDH mRNA in LN229 cells following treatment with G-TPP.

Experiment [13] deals with p53 promoter in MCF-7 cells. In words: p53 luciferase promoter activity. In kind it is cell-based, human. The settings on record: MCF-7, after 5 hours. How it is done:
FIG. 14A is a graph showing the RLU of MCF-7 cells from luciferase produced from a p53 promoter following no treatment or treatment with G-TPP, Eto 10, Eto 10 and G-TPP, Eto 20, and Eto 20 and G-TPP. Cells were analyzed after 5 hours for β-galactosidase-normalized p53 luciferase promoter activity.
as §3

Experiment [14] deals with cancer cells. As to the kind of experiment: Pan-caspase inhibitor effect on TRAIL+Gamitrinib apoptosis and caspase cleavage. The experiment is classed as cell-based. How it is done: as §4

Where a SMILES comes first, the peptide text is derived from it. The star is where a group is joined. Cbz = O=C(OCc1ccccc1)*; CH2F = FC*

Turning to `Cn1cnc(N)c2ncnc1-2` [3-methyladenine], the “glioblastoma cell death induced by suboptimal concentrations of G-TPP (MTT)” value in experiment [1] is recorded as “enhanced glioblastoma cell death”.
`C=CCNC1=C2C[C@@H](C)C[C@H](OC)[C@H](O)[C@@H](C)/C=C(\C)[C@H](OC(N)=O)[C@@H](OC)/C=C\C=C(/C)C(=O)NC(=CC1=O)C2=O` [Gamitrinib 17-AAG, 17-allylamino demethoxygeldanamycin, reference compound]: the “cell ultrastructure (electron microscopy)” value in [2] is reported as “unremarkable”. For the same molecule, in experiment [3], the “NF-κB-mediated gene expression, constitutive” value is “no effect”. The FLIP promoter activity result in experiment [4] was “no effect”.
For `CO[C@H]1/C=C\C=C(/C)C(=O)NC2=CC(=O)C(NCCCCCC[P+](c3ccccc3)(c3ccccc3)c3ccccc3)=C(C[C@@H](C)C[C@H](OC)[C@H](O)[C@@H](C)/C=C(\C)[C@@H]1OC(N)=O)C2=O` [Gamitrinib-TPP, triphenylphosphonium geldanamycin], the “Annexin V positive and PI-negative tumor cells (apoptosis)” value in [5] was “no significant effects”. Besides, the “cleavage of caspase-3 or -7” value in [6] was “did not or only weakly induce cleavage of caspase-3 or -7”. The “cleavage of caspase-3 or -7” value in experiment [7] was “did not or only weakly induce cleavage of caspase-3 or -7”. Moreover, the “tumor size (bioluminescence)” value in [8] is listed as “did not show any significant reduction in tumor size”. In experiment [2], the “cell ultrastructure (electron microscopy)” value is recorded as “became completely filled with cytoplasmic vacuoles”. In [9], the “LC3 lipidated form (immunoblot)” value was “accumulated a lapidated form of the ubiquitin-like protein, light chain 3 (LC3)”. In addition, the LC3-GFP fluorescence pattern entry in experiment [10] is listed as “exhibited a punctate fluorescence pattern”. In [3], the “NF-κB-mediated gene expression after stimulation with TNF-α” value is “complete ablation” and the “NF-κB-mediated gene expression, constitutive” value is “complete ablation”. For the same molecule, the FLIP promoter activity result in experiment [4] is recorded as “rapid downregulation”. Also, in experiment [11], the FLIP protein expression entry was “rapid downregulation”. Moreover, the “RelB and bcl-3 mRNA” value in experiment [12] is on record as “rapid downregulation”. Also, the “etoposide-mediated induction of p53 luciferase promoter activity” value in [13] is reported as “unaffected”.
With `CO/C1=C\C(C)=C\[C@@H](C)[C@@H](O)[C@@H](C)C/C(C)=C/C=C/[C@H](OC)[C@@H]([C@@H](C)[C@@H](O)[C@H](C)[C@@]2(O)C[C@@H](O)[C@H](C)[C@@H](C(C)C)O2)OC1=O` [bafilomycin A], the “glioblastoma cell death induced by suboptimal concentrations of G-TPP (MTT)” value in [1] is on record as “enhanced glioblastoma cell death”.
Consider `COC(=O)CC(NC(=O)C(C)NC(=O)C(NC(=O)OCc1ccccc1)C(C)C)C(=O)CF` (stereo not drawn) [zVAD-fmk, benzyloxycarbonyl-Val-Ala-Asp(OMe)-fluoromethyl-ketone] (Cbz-Val-Ala-Asp(OMe)-CH2F; configuration not given here), for which the “effect on cleavage of caspases induced by the combination of TRAIL and TPP-GA” value in experiment [14] (Western blotting) is listed as “abolished cleavage of caspases”. Also, the “effect on TRAIL+Gamitrinib mediated apoptosis” value in experiment [14] (pan-caspase inhibitor added to the combination) was “significantly attenuated”.
With “TRAIL: Recombinant TRAIL obtained from Peprotech; death receptor agonist”, the “Annexin V positive and PI-negative tumor cells (apoptosis)” value in experiment [5] is reported as “no significant effects”. The “cleavage of caspase-3 or -7” value in experiment [6] and in [7] was “did not or only weakly induce cleavage of caspase-3 or -7” in each case. Further, in [8], the “tumor size (bioluminescence)” value is “did not show any significant reduction in tumor size”.

The values above are taken from patent US20110268722A1, “COMBINATION THERAPIES WITH MITOCHONDRIAL-TARGETED ANTI-TUMOR AGENTS” (priority 2010, published 2011).
